# Test results taken from ChEMBL document CHEMBL3352707, “Antimycobacterial activity of natural products and synthetic agents: pyrrolodiquinolines and vermelhotin as anti-tubercular leads against clinical multidrug resistant isolates of Mycobacterium tuberculosis” (Eur J Med Chem, 2015).
# Tested on: Mycobacterium tuberculosis
# Experiment: Antimycobacterial activity against Mycobacterium tuberculosis H37Ra after 7 days by microplate Alamar blue assay
# Type: functional
# Conditions: 168 h
row,SMILES,MIC [µg/mL]
1,COc1ccc2oc(=O)c(C(C)=O)cc2c1,> 100
2,COc1ccc2cc(C(C)=O)c(=O)oc2c1,> 100
3,COC(=O)c1cc2ccccc2oc1=O,> 100
4,O=[N+]([O-])c1cccc2ncccc12,100
5,COC(=O)c1cc2c(ccc3ccccc32)oc1=O,50
6,CC(=O)c1cc2cccc(O)c2oc1=O,> 100
7,CC(=O)c1cc2cc(Cl)ccc2oc1=O,> 100
8,O=C(c1ccccc1)c1cc2cc(Cl)ccc2oc1=O,> 100
9,O=C(c1ccccc1)c1cc2c(ccc3ccccc32)oc1=O,> 100
10,C/C=C(\C)c1c(Br)c(O)c(C)c2c1Oc1cc(O)c(Br)c(C)c1C(=O)O2,50
11,O=C1CCCC2=C1C(c1c[nH]c3ccccc13)c1c(ccc3ccccc13)O2 (centres undefined),> 100
12,COCCC(=O)O,> 100
13,COC(=O)CCC[N+](=O)[O-],12.5
14,C/C=C(\C)c1c(Cl)c(OC)c(C)c2c1Oc1c(Cl)c(O)c(Cl)c(C)c1C(=O)O2,100
15,C/C=C(\C)c1c(Cl)c(OC)c(C)c(O)c1Oc1c(Cl)c(O)c(Cl)c(C)c1C(=O)OC,100
16,COC(=O)[C@@H]1CC[C@@]23COC(=O)C2=CCC[C@@H]3[C@@]1(C)CC(=O)c1ccoc1,> 100
17,COc1cc(O)cc2cc3c(c(O)c12)C(=O)C[C@@](C)(O)C3,25
18,C[C@@H]1CCN2C[C@@]34C[C@@]5(CC(=O)N(C)C5=O)C(C)(C)[C@H]3C[C@@]12C(=O)N4C,25
19,CC[C@@H](C)C[C@]1(C)C=C/C(=C2/C(=O)O[C@H](CC(=O)O)C2=O)O1,100
20,CC[C@H](C)[C@@H](O)[C@@H](C)C(=O)O[C@H]1CC(CC(=O)[C@H]2[C@H](C)CCC[C@@H]2O)=C(C)C(=O)[C@@]1(C)O,> 100
21,CC[C@H](C)[C@@H](O)[C@@H](C)C(=O)O[C@@]1(C)C(=O)c2c(cc(O)c3c2CCC[C@H]3C)C(C)(O)C1=O (some centres undefined),> 100
22,C/C(=C\C=C\[C@H](O)[C@@H](C)O)[C@H](O)[C@H](C)C(=O)O[C@H]1C[C@H](C)C[C@@H]2C=C[C@H](C)[C@](C)(C(=O)CCO)[C@@H]12,> 100

row,SMILES,MIC [µg/mL]
1,C/C(=C\C=C\[C@H](O)[C@@H](C)O)[C@H](O)[C@H](C)C(=O)O[C@H]1C[C@H](C)C[C@@H]2C=C[C@H](C)[C@](C)(C(=O)C(O)CO)[C@@H]12 (some centres undefined),> 100
2,C/C(=C\C=C\[C@H](O)[C@@H](C)O)[C@H](O)[C@H](C)C(=O)O[C@H]1C[C@H](CO)C[C@@H]2C=C[C@H](C)[C@](C)(C(=O)C(O)CO)[C@@H]12 (some centres undefined),> 100
3,CC1=CC2=C(Cc3c(O)cc(C)oc3=O)C(=O)[C@](C)(O)[C@@H](O)C2=CO1,> 100
4,O=C1c2c(O)cc(O)c([C@@H]3C(=O)c4c(O)cc(O)cc4O[C@H]3c3ccc(O)cc3)c2O[C@H](c2ccc(O)cc2)[C@H]1O,> 100
5,O=C1NC(=O)/C(=C2/CCNC(=O)c3[nH]c(Br)cc32)N1,> 100
6,CN1c2cccc([N+](=O)[O-])c2C2CC1OC1=C2C(=O)CC(C)(C)C1 (centres undefined),> 100
7,CN1c2ccccc2C2CC1OC1=C2C(=O)CC(C)(C)C1 (centres undefined),> 100
8,CN1c2ccccc2C2CC1OC1=C2C(=O)CCC1 (centres undefined),> 100
9,CC(=O)c1cc2ccccc2[nH]c1=O,> 100
10,O=C(c1ccccc1)c1cc2cc([N+](=O)[O-])ccc2oc1=O,50
11,CC1(C)CC(=O)C2=C(C1)Oc1ccccc1C2c1c[nH]c2ccccc12 (centres undefined),50
12,CC1(C)CC(=O)C2=C(C1)Oc1c(O)cccc1C2c1c[nH]c2ccccc12 (centres undefined),100
13,COc1ccc2c(c1)OC1=C(C(=O)CC(C)(C)C1)C2c1c[nH]c2ccccc12 (centres undefined),100
14,COc1ccc(Br)c2c1OC1=C(C(=O)CC(C)(C)C1)C2c1c[nH]c2ccccc12 (centres undefined),> 100
15,CC1(C)CC(=O)C2=C(C1)Oc1c(cc(C(C)(C)C)cc1C(C)(C)C)C2c1c[nH]c2ccccc12 (centres undefined),> 100
16,CCN(CC)c1ccc2c(c1)OC1=C(C(=O)CC(C)(C)C1)C2c1c[nH]c2ccccc12 (centres undefined),> 100
17,CC1(C)CC(=O)C2=C(C1)Oc1ccc(Cl)cc1C2c1c(C(=O)O)[nH]c2ccccc12 (centres undefined),100
18,CC1(C)CC(=O)C2=C(C1)Oc1ccc3ccccc3c1C2c1c[nH]c2ccccc12 (centres undefined),25
19,O=C1CCCC2=C1C(c1c[nH]c3ccccc13)c1ccccc1O2 (centres undefined),> 100
20,O=C1CCCC2=C1C(c1c[nH]c3ccccc13)c1ccc(O)cc1O2 (centres undefined),> 100
21,COc1ccc2c(c1)OC1=C(C(=O)CCC1)C2c1c[nH]c2ccccc12 (centres undefined),> 100
22,O=C1CCCC2=C1C(c1c[nH]c3ccccc13)c1cc(Cl)ccc1O2 (centres undefined),50

row,SMILES,MIC [µg/mL]
1,O=C1CCCC2=C1C(c1c[nH]c3ccccc13)c1cc(Br)ccc1O2 (centres undefined),50
2,COc1ccc2c(c1)C(c1c[nH]c3ccccc13)C1=C(CCCC1=O)O2 (centres undefined),100
3,O=C1CCCC2=C1C(c1c[nH]c3ccccc13)c1cccc(O)c1O2 (centres undefined),> 100
4,COc1ccc(Br)c2c1OC1=C(C(=O)CCC1)C2c1c[nH]c2ccccc12 (centres undefined),> 100
5,COc1ccc(Br)c2c1OC1=C(C(=O)CC(C)(C)C1)C2n1nnc2ccccc21 (centres undefined),> 100
6,CC1(C)CC(=O)C2=C(C1)Oc1ccc(Br)cc1C2n1nnc2ccccc21 (centres undefined),> 100
7,CC1(C)CC(=O)C2=C(C1)Oc1c(O)cccc1C2n1nnc2ccccc21 (centres undefined),> 100
8,O=C1CCCC2=C1C(n1nnc3ccccc31)c1cc(Cl)ccc1O2 (centres undefined),> 100
9,O=C1CCCC2=C1C(n1nnc3ccccc31)c1cc(Br)ccc1O2 (centres undefined),> 100
10,COc1ccc2c(c1)C(n1nnc3ccccc31)C1=C(CCCC1=O)O2 (centres undefined),> 100
11,COc1ccc(Br)c2c1OC1=C(C(=O)CCC1)C2n1nnc2ccccc21 (centres undefined),> 100
12,CN1C(=O)C(C2C3=C(CC(C)(C)CC3=O)Oc3ccccc32)C(=O)N(C)C1=O (centres undefined),> 100
13,CN1C(=O)C(C2C3=C(CC(C)(C)CC3=O)Oc3ccc(Cl)cc32)C(=O)N(C)C1=O (centres undefined),> 100
14,CN1C(=O)C(C2C3=C(CC(C)(C)CC3=O)Oc3ccc(Br)cc32)C(=O)N(C)C1=O (centres undefined),> 100
15,COc1ccc2c(c1)C(C1C(=O)N(C)C(=O)N(C)C1=O)C1=C(CC(C)(C)CC1=O)O2 (centres undefined),> 100
16,CN1C(=O)C(C2C3=C(CC(C)(C)CC3=O)Oc3ccc([N+](=O)[O-])cc32)C(=O)N(C)C1=O (centres undefined),> 100
17,CN1C(=O)C(C2C3=C(CCCC3=O)Oc3ccc(Cl)cc32)C(=O)N(C)C1=O (centres undefined),> 100
18,CN1C(=O)C(C2C3=C(CCCC3=O)Oc3ccc(Br)cc32)C(=O)N(C)C1=O (centres undefined),> 100
19,CN1C(=O)C(C2C3=C(CCCC3=O)Oc3ccc([N+](=O)[O-])cc32)C(=O)N(C)C1=O (centres undefined),> 100
20,COc1ccc2c(c1)C(C1=C(O)CCCC1=O)C1=C(CCCC1=O)O2 (centres undefined),> 100
21,COC(=O)C1=C(C)Oc2c(cc(C(C)(C)C)cc2C(C)(C)C)[C@@H]1[C@H](C(C)=O)C(=O)OC,> 100
22,COC(=O)C1=C(C)Oc2ccc(Cl)cc2[C@@H]1[C@H](C(C)=O)C(=O)OC,> 100

row,SMILES,MIC [µg/mL]
1,COC(=O)C1=C(C)Oc2ccc(Br)cc2[C@@H]1[C@H](C(C)=O)C(=O)OC,> 100
2,COC(=O)C1=C(C)Oc2ccc(OC)cc2[C@@H]1[C@H](C(C)=O)C(=O)OC,> 100
3,COC(=O)C1=C(C)Oc2c(O)cccc2[C@@H]1[C@H](C(C)=O)C(=O)OC,> 100
4,C[n+]1cc2c(cn3c4ccccc4ccc23)c2ccccc21.[I-],1.5
5,CN1Cc2c(cn3c2ccc2ccccc23)-c2ccccc21,0.7
6,O=C(O)CC[N+](=O)[O-],50
7,O=C(c1ccccc1)c1cc2ccccc2oc1=O,50
8,CC(=O)c1cc2cc(Br)ccc2oc1=O,> 100
9,CCC(N)C(=O)O (racemic),> 100
10,C[C@@H]1[C@H](O)[C@@H](C)/C=C/C=C/C=C/C=C/C=C/C=C/C=C/[C@H](O[C@@H]2O[C@H](C)[C@@H](O)[C@H](N)[C@@H]2O)C[C@@H]2O[C@](O)(C[C@@H](O)C[C@@H](O)[C@H](O)CC[C@@H](O)C[C@@H](O)CC(=O)O[C@H]1C)C[C@H](O)[C@H]2C(=O)O [AMPHOTERICIN B],> 100
11,O=C(OC[C@@H](O)[C@@H](O)COC(=O)/C(Cc1ccc(O)cc1)=N\O)/C(Cc1ccc(O)cc1)=N\O [ASPERGILLUSOL A],> 100
12,COC(=O)[C@]1(Cc2ccc3c(c2)C[C@H](O)C(C)(C)O3)OC(=O)C(O)=C1c1ccc(O)cc1 [BUTYROLACTONE V],> 100
13,Cc1cc(O)c2c(c1O)C(=O)c1cc(O)cc(O)c1C2=O [CATENARIN],100
14,O=C1C[C@H]2SS[C@@]34C[C@@H]1[C@@H]([C@H]2O)N3C(=O)[C@@]12C[C@H]3C(=O)C[C@@H](S1)[C@H](O)[C@H]3N2C4=O [EPICOCCIN A],> 100
15,O=c1cc(CO)occ1O [KOJIC ACID],> 100
16,COc1cc(O)cc2c1C(=O)c1c(O)cc(C)cc1C2=O [QUESTIN],50
17,COC(=O)[C@@]12Oc3ccc(-c4ccc5c(c4O)C(O)C4=C(O)C[C@H](C)[C@@H](O)[C@]4(C(=O)OC)O5)c(O)c3C(=O)C1=C(O)C[C@H](C)[C@H]2O (some centres undefined) [SECALONIC ACID D],> 100
18,NCCS(=O)(=O)O [TAURINE],> 100
19,C/C=C/C1=CC=C/C(=C2\C(=O)CNC2=O)O1 [VERMELHOTIN],3.1

# Tested on: MRC5
# Experiment: Cytotoxicity against human MRC5 cells at 50 ug/ml by MTT assay
# Type: cell-based
# Conditions: not given
row,SMILES,Activity
1,COc1cccc2c1C(=O)c1c(O)c3c(c(O)c1C2=O)C[C@@](O)(C(=O)CO)C[C@@H]3O[C@H]1C[C@H](N)[C@H](O)[C@H](C)O1 [DOXORUBICIN],Non-toxic

# Tested on: MRC5
# Experiment: Cytotoxicity against human MRC5 cells by MTT assay
# Type: cell-based
# Conditions: not given
row,SMILES,IC50 [µg/mL]
1,C[n+]1cc2c(cn3c4ccccc4ccc23)c2ccccc21.[I-],30
2,CN1Cc2c(cn3c2ccc2ccccc23)-c2ccccc21,23.5
3,C/C=C/C1=CC=C/C(=C2\C(=O)CNC2=O)O1 [VERMELHOTIN],6.97

# Tested on: Mycobacterium tuberculosis
# Experiment: Antimycobacterial activity against Mycobacterium tuberculosis H37Rv after 7 days by microplate Alamar blue assay
# Type: functional
# Conditions: 168 h
row,SMILES,MIC [µg/mL]
1,COCCC(=O)O,100
2,COC(=O)CCC[N+](=O)[O-],25
3,C[n+]1cc2c(cn3c4ccccc4ccc23)c2ccccc21.[I-],6.2
4,CN1Cc2c(cn3c2ccc2ccccc23)-c2ccccc21,6.2
5,O=C(O)CC[N+](=O)[O-],12.5
6,O=C1C[C@H]2SS[C@@]34C[C@@H]1[C@@H]([C@H]2O)N3C(=O)[C@@]12C[C@H]3C(=O)C[C@@H](S1)[C@H](O)[C@H]3N2C4=O [EPICOCCIN A],> 100
7,C/C=C/C1=CC=C/C(=C2\C(=O)CNC2=O)O1 [VERMELHOTIN],6.2

# Tested on: Mycobacterium tuberculosis
# Experiment: Antimycobacterial activity against p-Aminosalicylic acid-resistant Mycobacterium tuberculosis H37Rv ATCC 35821 after 7 days by microplate Alamar blue assay
# Type: functional
# Conditions: H37Rv ATCC 35821, 168 h
row,SMILES,MIC [µg/mL]
1,C[n+]1cc2c(cn3c4ccccc4ccc23)c2ccccc21.[I-],1.5
2,CN1Cc2c(cn3c2ccc2ccccc23)-c2ccccc21,1.5
3,C/C=C/C1=CC=C/C(=C2\C(=O)CNC2=O)O1 [VERMELHOTIN],3.1
